The source of these data is patent US8022225B2, “Triazole derivative” (Taisho Pharmaceutical Co., Ltd, priority 2004, dated 2011).

Series [1] addresses T1, human Edg-1(S1P1) (Homo sapiens, UniProt P21453).
T1 construct: expressed in transfected cells; host or cells: HEK-293
Briefly: Membrane system binding test: inhibition of [33P]-S1P binding to the membrane fraction of Edg-1(S1P1) gene transferred HEK-293 cells. To be noted: 10 μM compound; [33P]-S1P 0.1 nM; membrane fraction of Edg-1(S1P1) gene transferred HEK-293 cells; read-out: Membrane system binding test % inhibition (10 μM). The gist of the method: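 Membranes from HEK-293 cells transfected with Edg-1(S1P1) incubated 1 h at 30 °C with 0.1 nM [^33P]-S1P and compound at 10^−5 M (0.1% DMSO), pH 7.4 buffer with fatty acid-free BSA. Filter-bound radioactivity counted; inhibition rate calculated against no-compound binding, with untransfected-cell background subtracted.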

Series [2] deals with T1, human Edg-1(S1P1). Briefly: Cell system binding test: inhibition of [3H]-S1P binding to Edg-1(S1P1) gene transferred HEK-293 cells. Particulars: 10 μM compound, [3H]-S1P 10 nM, read-out: Cell system binding test % inhibition (10 μM).

T1 sequence (P21453 whole entry): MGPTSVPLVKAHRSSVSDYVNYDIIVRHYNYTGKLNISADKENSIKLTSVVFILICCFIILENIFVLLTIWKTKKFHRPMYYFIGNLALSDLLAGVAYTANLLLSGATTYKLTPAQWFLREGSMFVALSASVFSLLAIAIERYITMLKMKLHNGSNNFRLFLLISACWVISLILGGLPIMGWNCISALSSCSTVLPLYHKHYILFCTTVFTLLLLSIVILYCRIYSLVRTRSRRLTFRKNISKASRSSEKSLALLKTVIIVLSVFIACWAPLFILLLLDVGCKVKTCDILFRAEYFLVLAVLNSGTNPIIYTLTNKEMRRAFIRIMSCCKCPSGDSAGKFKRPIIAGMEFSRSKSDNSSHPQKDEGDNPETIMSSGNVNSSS

As for `C=CCSc1nnc([C@@H](C)N(C)S(=O)(=O)c2ccc(Cl)cc2)n1CC` [Compound 99, N-{(1R)-1-[5-(allylthio)-4-ethyl-4H-1,2,4-triazol-3-yl]ethyl}-4-chloro-N-methylbenzenesulfonamide], the melting point is 142 to 143 °C. The inhibition at 10 µM in series [1] was 57.4%. Besides, the inhibition at 10 µM in series [2] came to 75.8%.
`C=CCSc1nnc(C(CCC)NS(=O)(=O)c2ccc(Cl)cc2)n1C` (stereo not drawn) [Compound 125, N-{1-[(5-allylthio)-4-methyl-4H-1,2,4-triazol-3-yl]butyl}-4-chlorobenzenesulfonamide] had a melting point of 161.5 to 162 °C. Further, the inhibition at 10 µM in series [1] was determined as 52.4%. In addition, the inhibition at 10 µM in series [2] came out at 69%.
`CCCOc1nnc([C@@H](C)NS(=O)(=O)c2ccc(Cl)cc2)n1CC` [Compound 183, 4-Chloro-N-[(1R)-1-(4-ethyl-5-propoxy-4H-1,2,4-triazol-3-yl)ethyl]benzenesulfonamide] gave a melting point of 150.5 to 151.5 °C. For the same molecule, the inhibition at 10 µM in series [1] is 97.7%. In series [2], the inhibition at 10 µM turned out to be 89.2%.
`CCn1c(OC)nnc1[C@@H](C)NS(=O)(=O)c1ccccc1` [Compound 376, [(1R)-1-(4-Ethyl-5-methoxy-4H-[1,2,4]triazol-3-yl)ethyl]benzenesulfonamide] registered a melting point of 161 to 162 °C. Besides, in series [1], the inhibition at 10 µM was found to be 57.3%. For the same molecule, in series [2], the inhibition at 10 µM came to 90.7%.

The term melting point denotes the temperature, or range, at which the solid turns liquid. In general, inhibition refers to the change of the read-out against control, counted positive when it falls.
